Biological target: Coagulation factor XI (Homo sapiens, UniProt P03951)
Experiment: In Vitro Assay: The effectiveness of compounds of the present invention as inhibitors of the coagulation Factors XIa, VIIa, IXa, Xa, XIIa, plasma kallikrein or thrombin, can be determined using a relevant purified serine protease, respectively, and an appropriate synthetic substrate. The rate of hydrolysis of the chromogenic or fluorogenic substrate by the relevant serine protease was measured both in the absence and presence of compounds of the present invention. […] A decrease in the rate of absorbance or fluorescence change in the presence of inhibitor is indicative of enzyme inhibition. Such methods are known to one skilled in the art.

Chain of Coagulation factor XI (P03951 19-387 limits assumed): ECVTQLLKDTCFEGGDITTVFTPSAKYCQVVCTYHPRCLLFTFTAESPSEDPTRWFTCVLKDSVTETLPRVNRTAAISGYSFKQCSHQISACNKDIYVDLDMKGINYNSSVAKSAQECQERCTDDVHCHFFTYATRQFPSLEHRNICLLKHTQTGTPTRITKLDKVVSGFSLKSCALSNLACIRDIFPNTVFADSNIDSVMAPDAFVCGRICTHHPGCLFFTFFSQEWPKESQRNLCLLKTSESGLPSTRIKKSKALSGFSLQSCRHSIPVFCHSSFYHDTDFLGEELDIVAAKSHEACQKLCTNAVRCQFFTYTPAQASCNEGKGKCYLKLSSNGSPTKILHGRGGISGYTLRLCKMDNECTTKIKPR
Chain of Coagulation factor XI (P03951 388-625 limits assumed): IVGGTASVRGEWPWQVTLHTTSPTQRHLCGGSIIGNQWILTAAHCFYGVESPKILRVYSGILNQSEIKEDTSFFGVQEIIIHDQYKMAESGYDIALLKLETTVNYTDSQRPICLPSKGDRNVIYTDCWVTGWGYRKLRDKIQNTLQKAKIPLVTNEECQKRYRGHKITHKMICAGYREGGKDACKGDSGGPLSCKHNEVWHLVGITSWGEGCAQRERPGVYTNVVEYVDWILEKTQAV

O=C(/C=C/c1cc(Cl)ccc1-n1cnnn1)N[C@H]1CCCCC(=O)Nc2cc3[nH]ncc3cc2-c2c[nH]c1n2
Ki: 183 nM
